Assay results published in patent US11168080B2, “Dynamin-1-like protein inhibitors” (Mitobridge, Inc., priority 2017, dated 2021).

Target: Drp1 (Homo sapiens (Human), UniProt O00429)
Experiment: Drp1 Activity Screen: colorimetric (malachite green) GTPase assay
Type: biochemical
Details: 1 mM GTP, 20 min at 37° C.; for IC50: GTPase activity, 0.6 μM Drp1 preincubated with 0.1 mg/mL liposomes
Experimental: The GTPase activity of Drp1 was assayed using a colorimetric assay similar to as described previously by Leonard M. et al. “Robust colorimetric assays for dynamin's basal and stimulated GTPase activities.” Methods Enzymol. […] Briefly, for GTPase assays of purified Drp1 inhibitor samples, 0.6 μM Drp1 preincubated with 0.1 mg/mL liposomes (consisting of 80% soybean lipids/20% cardiolipin) and inhibitor was added to 1 mM GTP in a microtiter plate for 20 min at 37° C. in 4 mM MgCl2, 10 mM Hepes (pH 7.0), 100 mM KCl, 1 mM DTT. Reactions were stopped by diluting with 0.5 mM EDTA. Samples were then incubated with malachite green reagent (1 mM malachite green and 50 mM ammonium molybdate in 1 N HCl), and the absorbance at 650 nm was measured. The reaction rates, IC50 values, and max % inhibition were determined using Excel/GraphPad Prism software.

Sequence of Drp1 (O00429 whole entry): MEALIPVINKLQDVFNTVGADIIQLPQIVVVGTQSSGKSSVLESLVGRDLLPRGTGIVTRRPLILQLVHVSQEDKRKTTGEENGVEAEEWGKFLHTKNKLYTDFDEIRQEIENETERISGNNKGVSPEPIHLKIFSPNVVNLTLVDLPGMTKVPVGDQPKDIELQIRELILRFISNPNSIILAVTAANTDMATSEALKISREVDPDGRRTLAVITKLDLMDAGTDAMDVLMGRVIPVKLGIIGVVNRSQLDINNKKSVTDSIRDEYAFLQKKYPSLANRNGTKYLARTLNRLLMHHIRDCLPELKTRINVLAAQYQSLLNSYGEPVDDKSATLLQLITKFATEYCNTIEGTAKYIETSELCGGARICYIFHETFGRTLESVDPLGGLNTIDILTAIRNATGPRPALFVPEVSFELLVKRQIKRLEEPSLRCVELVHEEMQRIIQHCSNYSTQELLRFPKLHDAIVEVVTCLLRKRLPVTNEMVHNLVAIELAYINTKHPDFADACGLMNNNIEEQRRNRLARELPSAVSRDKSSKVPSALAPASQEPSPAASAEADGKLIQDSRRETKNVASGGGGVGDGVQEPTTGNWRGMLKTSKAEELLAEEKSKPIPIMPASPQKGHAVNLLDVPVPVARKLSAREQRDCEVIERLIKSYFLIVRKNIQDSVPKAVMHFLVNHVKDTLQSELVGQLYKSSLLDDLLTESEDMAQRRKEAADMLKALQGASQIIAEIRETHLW

## Cc1cc(C(=O)Nc2ccc(C(=O)O)cc2C)n(Cc2csc(N3CCCCC3)n2)c1 [Compound A-54, 3-Methyl-4-(4-methyl-1-((2-(piperidin-1-yl)thiazol-4-yl)methyl)-1H-pyrrole-2-carboxamido)benzoic acid]
  IC50: > 100 µM

## Cc1cc(C(=O)NCc2ccc(C(=O)O)cc2)n(Cc2csc(N3CCCCC3)n2)c1 [Compound A-1, 4-((4-methyl-1-((2-(piperidin-1-yl)thiazol-4-yl)methyl)-1H-pyrrole-2-carboxamido)methyl)benzoic Acid]
  IC50: 6.4 µM

## CNC(=O)c1ccc(NC(=O)c2cc(C)cn2Cc2csc(N3CCCCC3)n2)cc1 [Compound A-22, 4-methyl-N-(4-(methylcarbamoyl)phenyl)-1-((2-(piperidin-1-yl)thiazol-4-yl)methyl)-1H-pyrrole-2-carboxamide]
  IC50: 1.8 µM

## Cc1cc(C(=O)N[C@H]2CC[C@H](C(=O)O)CC2)n(Cc2csc(N3CCCCC3)n2)c1 [Compound A-13, trans-4-(4-methyl-1-((2-(piperidin-1-yl)thiazol-4-yl)methyl)-1H-pyrrole-2-carboxamido)cyclohexane-1-carboxylic Acid]
  IC50: 5.5 µM

## Cc1cc(C(=O)Nc2ccc(C(=O)O)cc2)n(Cc2csc(N3CCCCC3C)n2)c1 (stereo not drawn) [Compound A-20, 4-(4-methyl-1-((2-(2-methylpiperidin-1-yl)thiazol-4-yl)methyl)-1H-pyrrole-2-carboxamido)benzoic Acid]
  IC50: 3.9 µM

## Cc1cc(C(=O)Nc2ccccn2)n(Cc2csc(N3CCCCC3)n2)c1 [Compound A-30, 4-methyl-1-((2-(piperidin-1-yl)thiazol-4-yl)methyl)-N-(pyridin-2-yl)-1H-pyrrole-2-carboxamide]
  IC50: 8.7 µM

## Nc1cc(C(=O)Nc2ccc(C(=O)O)cc2)n(Cc2csc(N3CCCCC3)n2)c1 [Compound A-53, 4-(4-Amino-1-((2-(piperidin-1-yl)thiazol-4-yl)methyl)-1H-pyrrole-2-carboxamido)benzoic acid]
  IC50: > 100 µM

## Cc1cc(C(=O)NC2CCOCC2)n(Cc2csc(N3CCCCC3)n2)c1 [Compound A-29, 4-methyl-1-((2-(piperidin-1-yl)thiazol-4-yl)methyl)-N-(tetrahydro-2H-pyran-4-yl)-1H-pyrrole-2-carboxamide]
  IC50: 14.4 µM

## Cc1cc(C(=O)N(C)c2ccccc2)n(Cc2csc(N3CCCCC3)n2)c1 [Compound A-28, N,4-dimethyl-N-phenyl-1-((2-(piperidin-1-yl)thiazol-4-yl)methyl)-1H-pyrrole-2-carboxamide]
  IC50: > 100 µM

## CCN(CC)c1nc(Cn2cc(C)cc2C(=O)Nc2ccc(C(=O)O)cc2)cs1 [Compound A-9, 4-(1-((2-(diethylamino)thiazol-4-yl)methyl)-4-methyl-1H-pyrrole-2-carboxamido)benzoic Acid]
  IC50: 51 µM

## Cc1cc(C(=O)Nc2ccc(-c3nn[nH]n3)cc2)n(Cc2csc(N3CCCCC3)n2)c1 [Compound A-7, N-(4-(1H-tetrazol-5-yl)phenyl)-4-methyl-1-((2-(piperidin-1-yl)thiazol-4-yl)methyl)-1H-pyrrole-2-carboxamide]
  IC50: 0.91 µM

## Cc1cc(C(=O)Nc2ccc(C(=O)O)cc2)n(Cc2csc(N3CCOCC3)n2)c1 [Compound A-12, 4-(4-methyl-1-((2-morpholinothiazol-4-yl)methyl)-1H-pyrrole-2-carboxamido)benzoic Acid]
  IC50: 25 µM

## Cc1cc(C(=O)NC2CCCC2)n(Cc2csc(N3CCCCC3)n2)c1 [Compound A-25, N-cyclopentyl-4-methyl-1-((2-(piperidin-1-yl)thiazol-4-yl)methyl)-1H-pyrrole-2-carboxamide]
  IC50: 5.7 µM

## Cc1cc(C(=O)Nc2ccc(I)cc2)n(Cc2csc(N3CCCCC3)n2)c1 [Compound A-33, N-(4-iodophenyl)-4-methyl-1-((2-(piperidin-1-yl)thiazol-4-yl)methyl)-1H-pyrrole-2-carboxamide]
  IC50: 4.5 µM
Max % inhibition of Drp1 GTPase activity, 0.6 μM Drp1, 0.1 mg/mL liposomes
  max % inh: 34%
